Laboratory results from patent US10610498B2, “Oral veterinary composition with gabapentin” (priority 2015, dated 2020).
“And” between values parts separate entries of the source, which are not always exact repeats. Equal values may be shown once. Read-outs that look alike come from different tables or passages of the source.

Assays:
[1] = system: dogs with moderate to severe osteoarthritis; experiment: Pain caused by osteoarthritis in dogs, Helsinki Chronic Pain Index questionnaire; assay type: in vivo; conditions: Medians±EE
Method: (§1) In addition to the tests performed for the treatment of epilepsy, the effect of gabapentin in the pain treatment in dogs caused by osteoarthritis was evaluated, 30 animals of race, age, weight and variable sex were used, with 3/5 of body condition and clinical and radiological signs from moderate to severe of osteoarthritis, according to the Bioarth scale. Two study groups were formed:
(§2) a) G0-D Group: treated with fluoxetine at dose of 1 mg/Kg of body weight, every 12 hours, orally.
(§3) b) G1-D Group: treated with gabapentin of 1.5-10 mg/Kg of body weight, every 12 hours, orally.
(§4) The dogs were monitored 8 consecutive weeks by applying the questionnaires of the Subjective Clinical Evaluation System, Liverpool Osteoarthritis in Dogs and the Helsinki Chronic Pain Index to the owners of the dogs, before and after administration of the treatments.
(§5) The results of the global observations made by the owners with the Helsinki Chronic Pain Index questionnaire expressed in Medians±EE are presented in Table 3. The Wilcoxon ranks test was performed using the SPSS Statistics program considering statistically significant values for a level of p<0.05.

[2] = system: dogs with moderate to severe osteoarthritis; experiment: Pain caused by osteoarthritis in dogs, Subjective Clinical Evaluation System; assay type: in vivo; conditions: for Subjective Clinical Evaluation System, global observations: Medians±EE; for Result for the pain treatment (different pain assessment questionnaires): dogs with osteoarthritis, oral, every 12 hours, 8 weeks
Method: as §1, §2, §3, §4
The Subjective Clinical Evaluation System includes the following evaluation points:
3) Mobility of the affected joint: (0) No limitation of movement and no crepitus is palpable, (1) slight decrease in range of motion (10-20%), no crepitus is palpable, (2) slight decrease in range of motion (10-20%) with palpable crepitation, (3) moderate decrease in range of motion (20-50%) and (4) severe decrease in range of motion (>50%) with palpable crepitus.
4) Hold the contralateral limb high: (0) quickly accept to raise the contralateral limb, (1) offer resistance to the contralateral limb elevation, but maintain its weight on the affected limb for more than one minute, (2) offer moderate resistance to the elevation of the contralateral limb and replaces it after 30 seconds, (3) it offers resistance to the elevation of the contralateral limb and replaces it after 10 seconds and (4) refuses to elevate the contralateral limb.
Statistically significant values were considered for a level of p<0.05.

[3] = system: dogs with moderate to severe osteoarthritis; experiment: Pain caused by osteoarthritis in dogs, Liverpool Osteoarthritis in Dogs questionnaire; assay type: in vivo; design: scale not given here; conditions: Medians±EE
Method: as §1, §2, §3, §4
as §5, with “Liverpool Osteoarthritis in Dogs” for “Helsinki Chronic Pain Index”

neuropathic pain = conditions: individually, maximum effect at 60 minutes post-treatment, cited from earlier work
calf dehorning = conditions: gabapentin 15 mg/Kg oral, alone or with meloxicam; cited from earlier work
[4] = horses, cited from earlier work
[5] = reported in dogs; cited from earlier work
[6] = system: dogs diagnosed with idiopathic epilepsy; experiment: Efficacy of gabapentin vs phenobarbital against idiopathic epilepsy in dogs (seizure episodes, adverse effects); assay type: in vivo; conditions: for Seizure number per month prior to the study: baseline; for Seizure number per month prior to the study / Changes in the type of seizure / Clinical adverse effects observed / Seizure number per month after the study: individual dogs; for Seizure number per month after the study: monitored 3 months
Method: a) G0-E Group: treated with phenobarbital at dose of 2 mg/Kg of body weight, every 12 hours.
b) G1-E Study Group: treated with gabapentin of 10 mg/Kg of body weight, divided 3 times a day by oral administration.
c) G2-E Study Group: treated with gabapentin of 20 mg/Kg of body weight, divided 3 times a day by oral administration.
Patients were monitored for 3 consecutive months, quantifying seizure episodes for each of the patients, obtaining the following: […]

[7] = horses; 5 mg/Kg oral; cited from earlier work
plasma proteins = conditions: cited from earlier work
cats [8] = conditions: for 10 and 12 days; cited from earlier work
dogs [9] = conditions: cited from earlier work
cats [10] = conditions: cited from earlier work
dogs [11] = conditions: cited from earlier work; remark: listed apart in the source
horses = conditions: 2 g/12 h/IV for 8 days; cited from earlier work
[12] = G0-D, fluoxetine 1 mg/Kg every 12 hours orally, WEEK 0
[13] = G0-D, fluoxetine 1 mg/Kg every 12 hours orally, WEEK 1
[14] = G0-D, fluoxetine 1 mg/Kg every 12 hours orally, WEEK 2
[15] = G0-D, fluoxetine 1 mg/Kg every 12 hours orally, WEEK 3
[16] = G0-D, fluoxetine 1 mg/Kg every 12 hours orally, WEEK 4
[17] = G0-D, fluoxetine 1 mg/Kg every 12 hours orally, WEEK 5
[18] = G0-D, fluoxetine 1 mg/Kg every 12 hours orally, WEEK 6
[19] = G0-D, fluoxetine 1 mg/Kg every 12 hours orally, WEEK 7
[20] = G0-D, fluoxetine 1 mg/Kg every 12 hours orally, WEEK 8
[21] = G1-D, gabapentin 1.5-10 mg/Kg every 12 hours orally, WEEK 0
[22] = G1-D, gabapentin 1.5-10 mg/Kg every 12 hours orally, WEEK 1
[23] = G1-D, gabapentin 1.5-10 mg/Kg every 12 hours orally, WEEK 2
[24] = G1-D, gabapentin 1.5-10 mg/Kg every 12 hours orally, WEEK 3
[25] = G1-D, gabapentin 1.5-10 mg/Kg every 12 hours orally, WEEK 4
[26] = G1-D, gabapentin 1.5-10 mg/Kg every 12 hours orally, WEEK 5
[27] = G1-D, gabapentin 1.5-10 mg/Kg every 12 hours orally, WEEK 6
[28] = G1-D, gabapentin 1.5-10 mg/Kg every 12 hours orally, WEEK 7
[29] = G1-D, gabapentin 1.5-10 mg/Kg every 12 hours orally, WEEK 8
[30] = G1-E, gabapentin 10 mg/Kg divided 3 times a day, oral
[31] = G2-E, gabapentin 20 mg/Kg divided 3 times a day, oral
[32] = G0-E, phenobarbital 2 mg/Kg every 12 hours

CNCCC(Oc1ccc(C(F)(F)F)cc1)c1ccccc1 (centres unmarked) [Fluoxetine]
Helsinki Chronic Pain Index questionnaire [1, 12]: 21.5 ± 2.43 | Helsinki Chronic Pain Index questionnaire [1, 13]: 20.5 ± 3.66 | Helsinki Chronic Pain Index questionnaire [1, 14]: 20 ± 3.1 | Helsinki Chronic Pain Index questionnaire [1, 15]: 15.5 ± 3.1 | Helsinki Chronic Pain Index questionnaire [1, 16]: 15.5 ± 2.56 | Helsinki Chronic Pain Index questionnaire [1, 17]: 15 ± 1.54 | Helsinki Chronic Pain Index questionnaire [1, 18]: 14 ± 2.35 | Helsinki Chronic Pain Index questionnaire [1, 19]: 13.5 ± 1.55 | Helsinki Chronic Pain Index questionnaire [1, 20]: 13.5 ± 1.41 | Subjective Clinical Evaluation System, global observations [2, 12]: 8.5 ± 0.51 | Subjective Clinical Evaluation System, global observations [2, 16]: 8.5 ± 1.19 | Subjective Clinical Evaluation System, global observations [2, 20]: 8 ± 1.79 | Result for the pain treatment (different pain assessment questionnaires) [2]: significantly favorable | Liverpool Osteoarthritis in Dogs questionnaire [3, 12]: 26 ± 2.2 | Liverpool Osteoarthritis in Dogs questionnaire [3, 13]: 23.5 ± 5.4 | Liverpool Osteoarthritis in Dogs questionnaire [3, 14]: 26 ± 5.19 | Liverpool Osteoarthritis in Dogs questionnaire [3, 15]: 22.5 ± 4.52 | Liverpool Osteoarthritis in Dogs questionnaire [3, 16]: 22.5 ± 4.38 | Liverpool Osteoarthritis in Dogs questionnaire [3, 17]: 23 ± 2.95 | Liverpool Osteoarthritis in Dogs questionnaire [3, 18]: 23 ± 2.56 | Liverpool Osteoarthritis in Dogs questionnaire [3, 19]: 22.5 ± 1.95 | Liverpool Osteoarthritis in Dogs questionnaire [3, 20]: 20.5 ± 1.35

NCC1(CC(=O)O)CCCCC1 [Gabapentin]
antihyperalgesic effect (neuropathic pain; gabapentin 17.8 mg/Kg subcutaneously): 55% | Helsinki Chronic Pain Index questionnaire [1, 21]: 22 ± 1.75 | Helsinki Chronic Pain Index questionnaire [1, 22]: 15 ± 3.23 | Helsinki Chronic Pain Index questionnaire [1, 23]: 20 ± 2.87 | Helsinki Chronic Pain Index questionnaire [1, 24]: 15 ± 3.06 | Helsinki Chronic Pain Index questionnaire [1, 25]: 18 ± 2.98 | Helsinki Chronic Pain Index questionnaire [1, 26]: 17 ± 3.68 | Helsinki Chronic Pain Index questionnaire [1, 27]: 18 ± 3.03 | Helsinki Chronic Pain Index questionnaire [1, 28]: 18 ± 2.8 | Helsinki Chronic Pain Index questionnaire [1, 29]: 16 ± 2.42 | Subjective Clinical Evaluation System, global observations [2, 21]: 9 ± 0.86 | Subjective Clinical Evaluation System, global observations [2, 25]: 4 ± 1.02 | Subjective Clinical Evaluation System, global observations [2, 29]: 6 ± 0.73 | Result for the pain treatment (different pain assessment questionnaires) [2]: significantly favorable | Liverpool Osteoarthritis in Dogs questionnaire [3, 21]: 27 ± 2.85 | Liverpool Osteoarthritis in Dogs questionnaire [3, 22]: 24 ± 2.26 | Liverpool Osteoarthritis in Dogs questionnaire [3, 23]: 22 ± 2.35 | Liverpool Osteoarthritis in Dogs questionnaire [3, 24]: 23 ± 3.15 | Liverpool Osteoarthritis in Dogs questionnaire [3, 25]: 22 ± 3.56 | Liverpool Osteoarthritis in Dogs questionnaire [3, 26]: 26 ± 3.15 | Liverpool Osteoarthritis in Dogs questionnaire [3, 27]: 26 ± 2.86 | Liverpool Osteoarthritis in Dogs questionnaire [3, 28]: 23 ± 2.67 | Liverpool Osteoarthritis in Dogs questionnaire [3, 29]: 20 ± 2.35 | average daily gain compared to the control (calf dehorning): significantly decreases | concentration of substance P compared to the control (calf dehorning): significantly decreases | half-life ([4]; 20 mg/kg IV): 8.5 h | half-life ([4]; 20 mg/kg p.o.): 7.7 h | half-life [5]: 3.4 h | Reduction of seizures ([6]; 10 mg/kg oral, month 3 of treatment, best result of the doses evaluated): significant reduction of seizures | Seizure number per month prior to the study [6, 30]: 11 and 4 and 5 (2×) and 8 and 10 and 6 and 1 and 3 and 9 | Changes in the type of seizure [6, 30]: NONE (6×) and PARTIAL CONVULSIONS (4×) | Clinical adverse effects observed [6, 30]: NONE (9×) and LIGHT SEDATION | Seizure number per month after the study [6, 30]: 0 (7×) and RESCUED (2×) and 1 | Seizure number per month prior to the study [6, 31]: 8 (3×) and 2 (2×) and 12 and 6 and 4 (2×) and 3 | Changes in the type of seizure [6, 31]: PARTIAL CONVULSIONS (3×) and NONE (4×) and CLONIC TONIC (3×) | Clinical adverse effects observed [6, 31]: LIGHT SEDATION (3×) and NONE (6×) and SOMNOLENCE | Seizure number per month after the study [6, 31]: 2 (2×) and 0 (4×) and 1 (2×) and RESCUED and 3 | half-life [7]: 3.4 h

CCC1(c2ccccc2)C(=O)NC(=O)NC1=O [Phenobarbital, phenobarbital]
Seizure number per month prior to the study [6, 32]: 3 and 11 and 13 and 2 (3×) and 8 and 7 and 10 and 1 | Clinical adverse effects observed [6, 32]: NONE (6×) and HYPER- and LIGHT SEDATION (3×) | Seizure number per month after the study [6, 32]: 0 (5×) and 4 and 1 (4×)

CC(=O)Oc1ccccc1C(=O)O [acetylsalicylic acid]
bound to plasma proteins (plasma proteins): 90% | toxic dose (cats [8]): 80-120 mg/Kg/24 h | dose at which vomiting and gastric ulcers have been described (dogs [9]; intake for 1 week): greater than 50 mg/kg/24 h | dose at which vomiting and gastric ulcers have been described (dogs [9]; intake for 4 weeks): > 100 mg/kg/24 h

CN1CC[C@]23c4c5ccc(O)c4O[C@H]2[C@@H](O)C=C[C@H]3[C@H]1C5 [morphine]
antihyperalgesic effect (neuropathic pain; morphine 3.2 mg/Kg subcutaneously): 51.7%

CC(=O)Nc1ccc(O)cc1 [paracetamol]
toxic dose (cats [10]): 50 mg/kg | toxic dose (dogs [11]): 150 mg/kg

CCCCC1C(=O)N(c2ccccc2)N(c2ccccc2)C1=O [phenylbutazone]
adverse effects of claudication treatment (horses): gastric ulcers and necrotizing colitis with protein loss
